# Measurements reported in US9339549B2, “Cationic graft-copolymer for drug delivery system” (priority 2013, dated 2016).
# Columns and labels:
# [1] = system: NIH/3T3 cells (mouse embryonic fibroblast cell line); assay: MTT test using NIH/3T3 cells; assay type: cell-based; conditions: incubation 50 hours at 37° C.
# Method: Following procedure by MTT assay of DESCRIPTION OF EMBODIMENTS (4), after incubation of NIH/3T3 cells (mouse embryonic fibroblast cell line) for 50 hours at 37° C., cell viability was examined.
# This test is a quantitative colorimetric method to determine cell proliferation. It utilizes the yellow tetrazolium salt [3-(4,5-Dimethylthiazol-2-yl)-2,5-diphenyltetrazolium-bromide] which is metabolized by mitochondrial succinic dehydrogenase activity of proliferating cells to yield a purple formazan reaction product.
# The formazan is then solubilized by isopropyl alcohol, and the concentration determined by optical density at 570 nm and cell survival was calculated using the following formula: Cell survival (%)=((As−Ab)/(Ac−Ab))×100
# Where, As=absorbance of the sample, Ac=absorbance of the control well […] and Ab=absorbance of the blank well.
# 1. Plate cells into 96-well tissue culture plates. Cells should be seeded at densities of 10,000 cells per well since they will reach optimal population densities within 24 to 48 hours.
# 2. Carry out the experiment by adding DDMC/PTX or PTX into appropriate well. The final volume of tissue culture medium in each well is 0.1 mL, and the medium may contain up to 10% Fetal Bovine Serum.
# 3. Use one vial of MTT solution for each 96-well plate assay.
# 4. Add 10 μL MTT solution to each well. […]
# 7. Read absorbance at 570 nm cell survival (%)=((As−Ab)/(Ac−Ab))×100
# B16F10 melanoma cells = assay: Anti-tumor effects and survival in B16F10 tumor-bearing C57BL/6 mice; assay type: in vivo, mouse
# Method: In vivo analysis for melanoma cells is investigated by C57BL/6 female mouse. Anti-tumor effects and survival rates were investigated in tumor-bearing mice.
# To evaluate the anti-tumor effects of DMMC/PTX complex, tumor-bearing mice were prepared by inoculating B16F10 melanoma cells S.C onto the back of C57BL/6 female mouse (2.0×10^6 cells/mouse). At average 1885 mm^3 of tumor volume, 12 days after inoculation, paclitaxel (PTX), DMMC/PTX4 (particle size 50 nm), DMMC/PTX5 (particle size 290 nm), and […] were administrated by I.P. injection three times (at a dose of 10 mg PXL/kg, on days 12, 14, and 16). Tumor size was measured with a digital vernier caliper and the volume was calculated using the relation V (mm^3)=(a×b^2)/2 where a is the longer, and b is the shorter diameter. The survival periods also monitored at 2 day intervals.
# The tumor growth inhibitory activities were evaluated using B16F10 in xeno-graft tumor-bearing C57BL/6 mice. The tumors rapidly grew in size when the mice were treated with saline and PTX. […] The mean tumor volumes increase rate in the PTX, […], DDMC/PTX4 and DDMC/PTX5 groups were 1.85, 1.84, 1.39 and 1.53, respectively.
# [2] = I.P. three times, 10 mg PXL/kg on days 12, 14, 16, B16F10 tumor-bearing C57BL/6 mice
compound,measurement,setting,value
"CC(=O)O[C@H]1C(=O)[C@@]2(C)[C@H]([C@H](OC(=O)c3ccccc3)[C@]3(O)C[C@H](OC(=O)[C@H](O)[C@@H](NC(=O)c4ccccc4)c4ccccc4)C(C)=C1C3(C)C)[C@]1(OC(C)=O)CO[C@@H]1C[C@@H]2O [control 2, paclitaxel]","IC50 (μg/ml), MTT",[1],4.5 µg/mL
paclitaxel [PTX],mean tumor volumes increase rate,B16F10 melanoma cells; [2],1.85
same,"median survival time (50%, MST)",B16F10 melanoma cells; [2],176 h
same,T/C of median survival time,B16F10 melanoma cells; relative to serine (saline) group = 1.0,1.46
"CC(=O)O[C@H]1C(=O)[C@@]2(C)[C@H]([C@H](OC(=O)c3ccccc3)[C@]3(O)C[C@H](OC(=O)[C@H](O)[C@@H](NC(=O)c4ccccc4)c4ccccc4)C(C)=C1C3(C)C)[C@]1(OC(C)=O)CO[C@@H]1C[C@@H]2O [control 1, paclitaxel]",IC50,"[1]; Mus musculus, NIH3T3, 50 h, read-out: IC50 (μg/ml), MTT",3 µg/mL
